System: CN0375-F725-PDC KRAS spheroid viability
Experiment: Anticancer human tumor CN0375-F725-PDC patient-derived colon carcinoma cell line growth inhibition [KRAS2]
Details: spheroids with HUVEC and MSC; for IC50: curve of first compound; for viability, T/C: stronger effect = lower value
Outline: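 Combination screen of spheroid viability in tumor-cell co-cultures with endothelial (HUVEC) and mesenchymal stem cell stroma. Each agent was tested in half-log dilutions, topping at clinical Cmax or at 10 microM without a known Cmax.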

[1] = second compound 0.1 µM, first compound 0.0316 µM
[2] = second compound 0.1 µM, first compound 0.1 µM
[3] = second compound 0.1 µM, first compound 0.316 µM
[4] = second compound 0.1 µM, first compound 1 µM
[5] = second compound 0.1 µM, first compound 3.16 µM
[6] = second compound 0.316 µM, first compound 0.0316 µM
[7] = second compound 0.316 µM, first compound 0.1 µM
[8] = second compound 0.316 µM, first compound 0.316 µM
[9] = second compound 0.316 µM, first compound 1 µM
[10] = second compound 0.316 µM, first compound 3.16 µM
[11] = second compound 1 µM, first compound 0.0316 µM
[12] = second compound 1 µM, first compound 0.1 µM
[13] = second compound 1 µM, first compound 0.316 µM
[14] = second compound 1 µM, first compound 1 µM
[15] = second compound 1 µM, first compound 3.16 µM
[16] = second compound 3.16 µM, first compound 0.0316 µM
[17] = second compound 3.16 µM, first compound 0.1 µM
[18] = second compound 3.16 µM, first compound 0.316 µM
[19] = second compound 3.16 µM, first compound 1 µM
[20] = second compound 3.16 µM, first compound 3.16 µM
[21] = second compound 10 µM, first compound 0.0316 µM
[22] = second compound 10 µM, first compound 0.1 µM
[23] = second compound 10 µM, first compound 0.316 µM
[24] = second compound 10 µM, first compound 1 µM
[25] = second compound 10 µM, first compound 3.16 µM
[26] = second compound 0.1 µM, first compound 10 µM
[27] = second compound 0.316 µM, first compound 10 µM
[28] = second compound 1 µM, first compound 10 µM
[29] = second compound 3.16 µM, first compound 10 µM
[30] = second compound 10 µM, first compound 10 µM
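Also: spheroids exposed to agents for 7 days.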

Compound	IC50 (second compound 0.1 µM) [µM]	IC50 (second compound 0.316 µM) [µM]	IC50 (second compound 1 µM) [µM]	IC50 (second compound 3.16 µM) [µM]	IC50 (second compound 10 µM) [µM]	viability, T/C [1] [%]	viability, T/C [2] [%]	viability, T/C [3] [%]	viability, T/C [4] [%]	viability, T/C [5] [%]	viability, T/C [6] [%]	viability, T/C [7] [%]	viability, T/C [8] [%]	viability, T/C [9] [%]	viability, T/C [10] [%]	viability, T/C [11] [%]	viability, T/C [12] [%]	viability, T/C [13] [%]	viability, T/C [14] [%]	viability, T/C [15] [%]	further results
CC(=O)OC12COC1CC(O)C1(C)C(=O)C(O)C3=C(C)C(OC(=O)C(O)C(NC(=O)OC(C)(C)C)c4ccccc4)CC(O)(C(OC(=O)c4ccccc4)C21)C3(C)C (stereo not given) + CC1OCC2(CCN(c3cnc(Sc4ccnc(N)c4Cl)c(N)n3)CC2)C1N	> 3.16	> 3.16	> 3.16	> 3.16	> 3.16	93.2	83.8	79.1	79.6	71.5	88.4	79.4	74.7	71.8	71.8	102	87.5	83.8	80.7	76.7	viability, T/C (second compound 0.1 µM, first compound 0.01 µM): 93.5%; viability, T/C (second compound 0.316 µM, first compound 0.01 µM): 91.5%; viability, T/C (second compound 1 µM, first compound 0.01 µM): 95.6%; viability, T/C (second compound 3.16 µM, first compound 0.01 µM): 77.6%; viability, T/C [16]: 74.8%; viability, T/C [17]: 68%; viability, T/C [18]: 64%; viability, T/C [19]: 64.5%; viability, T/C [20]: 58.6%; viability, T/C (second compound 10 µM, first compound 0.01 µM): 73.9%; viability, T/C [21]: 70.1%; viability, T/C [22]: 67.2%; viability, T/C [23]: 59.8%; viability, T/C [24]: 57.2%; viability, T/C [25]: 53.2%
CC(C)NCC(C(=O)N1CCN(c2ncnc3c2C(C)CC3O)CC1)c1ccc(Cl)cc1 (stereo not given) + C=CC(=O)N1CCN(c2nc(=O)n(-c3c(C)ccnc3C(C)C)c3nc(-c4c(O)cccc4F)c(F)cc23)C(C)C1	> 10	> 10	> 10	> 10	> 10	108	106	91.4	88.9	87.8	102	105	92.4	89	89.6	103	110	98.8	86.3	84.4	viability, T/C [26]: 80.1%; viability, T/C [27]: 75.9%; viability, T/C [28]: 77%; viability, T/C [16]: 106%; viability, T/C [17]: 111%; viability, T/C [18]: 101%; viability, T/C [19]: 87.7%; viability, T/C [20]: 84.2%; viability, T/C [29]: 73%; viability, T/C [21]: 101%; viability, T/C [22]: 95.7%; viability, T/C [23]: 88.7%; viability, T/C [24]: 72%; viability, T/C [25]: 71.9%; viability, T/C [30]: 55.7%
COC(=O)c1ccc2c(C(=Nc3ccc(N(C)C(=O)CN4CCN(C)CC4)cc3)c3ccccc3)c(O)[nH]c2c1 + C=CC(=O)N1CCN(c2nc(=O)n(-c3c(C)ccnc3C(C)C)c3nc(-c4c(O)cccc4F)c(F)cc23)C(C)C1	3.69	2.35	1.78	1.86	1.54	98.2	100	95.3	94.8	57.7	104	103	93.8	96.1	34.2	106	108	96.3	88.1	12.5	viability, T/C [26]: 0.25%; viability, T/C [27]: 0.2%; viability, T/C [28]: 0.2%; viability, T/C [16]: 104%; viability, T/C [17]: 106%; viability, T/C [18]: 102%; viability, T/C [19]: 90%; viability, T/C [20]: 15.7%; viability, T/C [29]: 0.22%; viability, T/C [21]: 97.9%; viability, T/C [22]: 98.2%; viability, T/C [23]: 87.1%; viability, T/C [24]: 73%; viability, T/C [25]: 12.3%; viability, T/C [30]: 0.26%
CCNC(=O)CC1N=C(c2ccc(Cl)cc2)c2cc(OC)ccc2-n2c(C)nnc21 (stereo not given) + C=CC(=O)N1CCN(c2nc(=O)n(-c3c(C)ccnc3C(C)C)c3nc(-c4c(O)cccc4F)c(F)cc23)C(C)C1	> 10	> 10	> 10	> 10	> 10	100	95.8	88.1	86	74.7	99.9	99.5	84.5	82	71.1	104	104	87.3	86.8	75.5	viability, T/C [26]: 57.4%; viability, T/C [27]: 58%; viability, T/C [28]: 64.7%; viability, T/C [16]: 104%; viability, T/C [17]: 94.9%; viability, T/C [18]: 88.4%; viability, T/C [19]: 85.1%; viability, T/C [20]: 67.9%; viability, T/C [29]: 59%; viability, T/C [21]: 102%; viability, T/C [22]: 99%; viability, T/C [23]: 84.6%; viability, T/C [24]: 71.6%; viability, T/C [25]: 73.9%; viability, T/C [30]: 60.8%
COc1cc(Nc2ncc3c(n2)-c2ccc(Cl)cc2C(c2c(F)cccc2OC)=NC3)ccc1C(=O)O + CC1OCC2(CCN(c3cnc(Sc4ccnc(N)c4Cl)c(N)n3)CC2)C1N	> 10	> 10	> 10	> 10	> 10	91.5	90.4	85.8	80.5	84.6	88.8	86.5	85.6	82.1	82.7	79.9	81.9	82.2	75.9	74.7	viability, T/C [26]: 70%; viability, T/C [27]: 72.5%; viability, T/C [28]: 64.7%; viability, T/C [16]: 81%; viability, T/C [17]: 74.6%; viability, T/C [18]: 70.3%; viability, T/C [19]: 70.6%; viability, T/C [20]: 67.9%; viability, T/C [29]: 62.8%; viability, T/C [21]: 66.7%; viability, T/C [22]: 71.4%; viability, T/C [23]: 67.2%; viability, T/C [24]: 62.6%; viability, T/C [25]: 61.6%; viability, T/C [30]: 53.6%

— PubChem BioAssay AID1963860 (Molecular Pharmacology Branch, DTP, NCI, 2024)
